Assay results reported in ChEMBL document CHEMBL1147818, “1,1'-Xylyl bis-1,4,8,11-tetraaza cyclotetradecane: a new potential copper chelator agent for neuroprotection in Alzheimer's disease. Its comparative effects with clioquinol on rat brain copper distribution” (Bioorg Med Chem Lett, 2006).

Key:
Rattus norvegicus [1] = experiment: Distribution of copper per 100 ml of Wistar rat blood at 5 mg/kg, iv after 1 hr; type: ADME, organism-based; design: dose 5 mg/kg, route intravenous; details: in vivo
Rattus norvegicus [2] = experiment: Decrease in copper concentration in Wistar rat CSF at 5 mg/kg, iv after 1 hr relative to control; type: functional; design: scale not given: the % may be the effect or the level left

Compound: Oc1c(I)cc(Cl)c2cccnc12 [CLIOQUINOL]
- Ct (Rattus norvegicus [1]): 126 µg
- Activity (Rattus norvegicus [2]): 70%

Compound: CC(C)(S)[C@@H](N)C(=O)O [PENICILLAMINE]
- Ct (Rattus norvegicus [1]): 135 µg

Compound: c1cc(CN2CCCNCCNCCCNCC2)ccc1CN1CCCNCCNCCCNCC1 [PLERIXAFOR]
- Ct (Rattus norvegicus [1]): 142 µg
- Activity (Rattus norvegicus [2]): 70%
